According to PMC8508980, “Design, Synthesis and Anticancer Profile of New 4-(1H-benzo[d]imidazol-1-yl)pyrimidin-2-amine-Linked Sulfonamide Derivatives with V600EBRAF Inhibitory Effect” (International Journal of Molecular Sciences, 2021):

What was measured:
Assay in all cases: NCI 60 cell line screen
Format in all cases: cell-based, human
HCT-15 = conditions: Homo sapiens; HCT-15, Colon Cancer; read-out: Percent growth
Experimental: (§1) Anticancer profiling over a panel of 60 cancer cell lines was carried out at the National Cancer Institute (NCI), Bethesda, Maryland, USA, https://dtp.cancer.gov/discovery_development/nci-60/methodology.htm (Last visit 22 September 2021), using the standard procedure (detailed procedure is located in the Supplementary Information page 50 s).
(§2) NCI standard procedure for 60 cell lines assay
(§3) The human tumor cell lines of the cancer screening panel are grown in RPMI 1640 mediu m containing 5% fetal bovine serum and 2 mM L-glutamine. For a typical screening experiment, cells are inoculated into 96 well microtiter plates in 100 μL at plating densities ranging from 5,000 to 40,000 cells/well depending on the doubling time of individual cell lines. After cell inoculation, the microtiter plates are incubated at 37° C, 5 % CO2, 95 % air and 100 % relative humidity for 24 h prior to addition of experimental drugs.
(§4) After 24 h, two plates of each cell line are fixed in situ with TCA, to represent a measurement of the cell population for each cell line at the time of drug addition (Tz). Experimental drugs are solubilized in dimethyl sulfoxide at 400-fold the desired final maximum test concentration (10 µM) and stored frozen prior to use. At the time of drug addition, an aliquot of frozen concentrate is thawed and diluted to twice the desired final maximum test concentration with co mp lete medium containing 50 μg/ml gentamicin. Additional four, 10-fold or ½ log serial dilutions are made to provide a total of five drug concentrations plus control. Aliquots of 100 μl of these different drug dilutions are added to the appropriate microtiter wells already containing 100 μl of medium, resulting in the required final drug concentrations.
(§5) Following drug addition, the plates are incubated for an additional 48 h at 37°C, 5 % CO2, 95 % air, and 100 % relative humidity. For adherent cells, the assay is terminated by the addition of cold TCA. Cells are fixed in situ by the gentle addition of 50 μl of cold 50 % (w/v) TCA (final concentration, 10 % TCA) and incubated for 60 minutes at 4°C. The supernatant is discarded, and the plates are washed five times with tap water and air dried. Sulforhodamine B (SRB) solution (100 μl) at 0.4 % (w/v) in 1 % acetic acid is added to each well, and plates are incubated for 10 minutes at room temperature. After staining, unbound dye is removed by washing five times with 1 % acetic acid and the plates are air dried. Bound stain is subsequently solubilized with 10 mM trizma base, and the absorbance is read on an automated plate reader at a wavelength of 515 nm. For suspension cells, the methodology is the same except that the assay is terminated by fixing settled cells at the bottom of the wells by g ently adding 50 μl of 80 % TCA (final concentration, 16 % TCA). Using the seven absorbance measurements [time zero, (Tz), control growth, (C), and test growth in the presence of drug at the five concentration levels (Ti)], the percentage growth is calculated at each of the drug concentrations levels. Percentage growth inhibition is calculated as:
(§6) [(Ti-Tz)/(C-Tz)] x 100 for concentrations for which Ti>/=Tz
(§7) [(Ti-Tz)/Tz] x 100 for concentrations for which Ti<Tz.
(§8) Three dose response parameters are calculated for each experimental agent. Growth inhibition of […]
(§9) resulting in a 50% reduction in the net protein increase (as measured by SRB staining) in control cells during the drug incubation. The drug concentration resulting in total growth inhibition […]
(§10) (TGI) is calculated from Ti = Tz.

RPMI-8226 = conditions: Homo sapiens; RPMI-8226, Leukemia; read-out: Percent growth
Experimental: as §1, §2, §3, §4, §5, §6, §7, §8, §9, §10

HOP-92 = conditions: Homo sapiens; HOP-92, Non-Small Cell Lung Cancer; read-out: Percent growth
Experimental: as §1, §2, §3, §4, §5, §6, §7, §8, §9, §10

NCI-H460 = conditions: Homo sapiens; NCI-H460, Non-Small Cell Lung Cancer; read-out: Percent growth
Experimental: as §1, §2, §3, §4, §5, §6, §7, §8, §9, §10

CAKI-1 = conditions: Homo sapiens; CAKI-1, Renal Cancer; read-out: Percent growth
Experimental: as §1, §2, §3, §4, §5, §6, §7, §8, §9, §10

NCI-H23 = conditions: Homo sapiens; NCI-H23, Non-Small Cell Lung Cancer; read-out: Percent growth
Experimental: as §1, §2, §3, §4, §5, §6, §7, §8, §9, §10

HT29 = conditions: Homo sapiens, HT-29; HT29, Colon Cancer; read-out: Percent growth
Experimental: as §1, §2, §3, §4, §5, §6, §7, §8, §9, §10

EKVX = conditions: Homo sapiens, Non-Small Cell Lung Cancer, read-out: Percent growth
Experimental: as §1, §2, §3, §4, §5, §6, §7, §8, §9, §10

NCI/ADR-RES = conditions: Homo sapiens, Ovarian Cancer, read-out: Percent growth
Experimental: as §1, §2, §3, §4, §5, §6, §7, §8, §9, §10

SK-MEL-5 = conditions: for activity at 10 µM: Homo sapiens, SK-MEL-5, Melanoma, read-out: Percent growth; for percent inhibition: SK-MEL-5, NCI-60 heat map analysis
Experimental: as §1, §2, §3, §4, §5, §6, §7, §8, §9, §10

SNB-75 = conditions: Homo sapiens; SNB-75, CNS-Cancer; read-out: Percent growth
Experimental: as §1, §2, §3, §4, §5, §6, §7, §8, §9, §10

NCI-H522 = conditions: Homo sapiens; NCI-H522, Non-Small Cell Lung Cancer; read-out: Percent growth
Experimental: as §1, §2, §3, §4, §5, §6, §7, §8, §9, §10

MOLT-4 = conditions: Homo sapiens; MOLT-4, Leukemia; read-out: Percent growth
Experimental: as §1, §2, §3, §4, §5, §6, §7, §8, §9, §10

KM12 = conditions: Homo sapiens; KM12, Colon Cancer; read-out: Percent growth
Experimental: as §1, §2, §3, §4, §5, §6, §7, §8, §9, §10

PC-3 = conditions: Homo sapiens; PC-3, Prostate Cancer; read-out: Percent growth
Experimental: as §1, §2, §3, §4, §5, §6, §7, §8, §9, §10

MDA-MB-468 = conditions: Homo sapiens; MDA-MB-468, Breast Cancer; read-out: Percent growth
Experimental: as §1, §2, §3, §4, §5, §6, §7, §8, §9, §10

UO-31 = conditions: Homo sapiens; UO-31, Renal Cancer; read-out: Percent growth
Experimental: as §1, §2, §3, §4, §5, §6, §7, §8, §9, §10

SMILES | activity at 10 µM (HCT-15) [%] | activity at 10 µM (RPMI-8226) [%] | activity at 10 µM (HOP-92) [%] | activity at 10 µM (NCI-H460) [%] | activity at 10 µM (CAKI-1) [%] | activity at 10 µM (NCI-H23) [%] | activity at 10 µM (HT29) [%] | activity at 10 µM (EKVX) [%] | activity at 10 µM (NCI/ADR-RES) [%] | activity at 10 µM (SK-MEL-5) [%] | activity at 10 µM (SNB-75) [%] | activity at 10 µM (NCI-H522) [%] | activity at 10 µM (MOLT-4) [%] | activity at 10 µM (KM12) [%] | activity at 10 µM (PC-3) [%] | activity at 10 µM (MDA-MB-468) [%] | activity at 10 µM (UO-31) [%] | percent inhibition (SK-MEL-5) [%]
O=S(=O)(NCCNc1nccc(-n2cnc3ccccc32)n1)c1ccc(F)cc1 [12b, N-(2-((4-(1H-benzo [d]imidazol-1-yl)pyrimidin-2-yl)amino)ethyl)-4-fluorobenzenesulfonamide] | 100 | 73.6 | 82.3 | 96.3 | 82 | 95.8 | 94.4 | 85.2 | 103 | 78 | 73.6 | 71.8 | 90.5 | 73.4 | 91.3 | 71.6 | 72.6 | 
O=S(=O)(NCCNc1nccc(-n2cnc3ccccc32)n1)c1ccc(Br)cc1 [12d, N-(2-((4-(1H-benzo [d]imidazol-1-yl)pyrimidin-2-yl)amino)ethyl)-4-bromobenzenesulfonamide] | 95.7 | 79.8 | 74.2 | 101 | 81.5 | 97.3 | 97.2 | 83.4 | 97.6 | 89.1 | 74.1 | 87.2 | 95.9 | 85.4 | 93.8 | 84 | 79.8 | 
O=S(=O)(NCCNc1nccc(-n2cnc3ccccc32)n1)c1ccccc1 [12a, N-(2-((4-(1H-benzo [d]imidazol-1-yl)pyrimidin-2-yl)amino)ethyl)benzenesulfonamide] | 97 | 84.9 | 73.3 | 103 | 83.7 | 96.4 | 102 | 91.2 | 104 | 95.8 | 91.8 | 93.8 | 93.7 | 100 | 93.5 | 94.3 | 77 | 
O=S(=O)(NCCCNc1nccc(-n2cnc3ccccc32)n1)c1ccccc1 [12h, N-(3-((4-(1H-benzo [d]imidazol-1-yl)pyrimidin-2-yl)amino)propyl)benzenesulfonamide] | 88 | 74.3 | 84.8 | 96.9 | 87.4 | 91.8 | 101 | 88.9 | 86.2 | 60.2 | 89.7 | 82.7 | 77.2 | 71 | 89.2 | 68.8 | 75.3 | 40
O=S(=O)(NCCNc1nccc(-n2cnc3ccccc32)n1)c1ccc(Cl)cc1 [12c, N-(2-((4-(1H-benzo [d]imidazol-1-yl)pyrimidin-2-yl)amino)ethyl)-4-chlorobenzenesulfonamide] | 96.6 | 99.4 | 90.2 | 103 | 87.4 | 101 | 103 | 92.2 | 97.8 | 99.4 | 79.4 | 92.1 | 103 | 97.1 | 103 | 101 | 81.6 | 
O=S(=O)(NCCCNc1nccc(-n2cnc3ccccc32)n1)c1ccc(Br)cc1 [12k, N-(3-((4-(1H-benzo [d]imidazol-1-yl)pyrimidin-2-yl)amino)propyl)-4-bromo benzenesulfonamide] | 83.2 | 71.1 | 79.3 | 94.3 | 84.5 | 92.8 | 103 | 81.5 | 88.9 | 53.5 | 86.1 | 75.5 | 64.9 | 68.3 | 84.7 | 70.7 | 74.3 | 40
COc1ccc(S(=O)(=O)NCCNc2nccc(-n3cnc4ccccc43)n2)cc1 [12f, N-(2-((4-(1H-benzo [d]imidazol-1-yl)pyrimidin-2-yl)amino)ethyl)-4-methoxy benzenesulfonamide] | 93.7 | 94 | 75.4 | 106 | 79.6 | 96.9 | 100 | 89.2 | 98.7 | 92.2 | 78.8 | 84.4 | 93.3 | 93.2 | 97.5 | 80.3 | 77.3 | 
COc1ccc(S(=O)(=O)NCCCNc2nccc(-n3cnc4ccccc43)n2)cc1 [12m, N-(3-((4-(1H-benzo [d]imidazol-1-yl)pyrimidin-2-yl)amino)propyl)-4-methoxy benzenesulfonamide] | 92.3 | 78.6 | 75.8 | 97.3 | 68.8 | 91.9 | 99.7 | 84.4 | 105 | 70.1 | 88.2 | 81.1 | 77 | 84.1 | 89.7 | 77.2 | 67.2 | 
